Laboratory results: patent US7674823B2, “DNA-PK inhibitors” (Cancer Research Technology Limited, priority 2001, dated 2010)
Like-named read-outs stand apart in the source and are kept apart here.

Experiments:
ATM protein [1] = molecular target: T1, ATM protein (Homo sapiens, UniProt Q13315); experiment: ATM inhibition assay (immunoprecipitated ATM, GSTp53N66 substrate); format: biochemical
T1 construct: ATM protein was immunoprecipitated from HeLa cell nuclear extract; endogenous in cells; host or cells: HeLa cell nuclear extract (immunoprecipitate)
T1 sequence (Q13315 whole entry): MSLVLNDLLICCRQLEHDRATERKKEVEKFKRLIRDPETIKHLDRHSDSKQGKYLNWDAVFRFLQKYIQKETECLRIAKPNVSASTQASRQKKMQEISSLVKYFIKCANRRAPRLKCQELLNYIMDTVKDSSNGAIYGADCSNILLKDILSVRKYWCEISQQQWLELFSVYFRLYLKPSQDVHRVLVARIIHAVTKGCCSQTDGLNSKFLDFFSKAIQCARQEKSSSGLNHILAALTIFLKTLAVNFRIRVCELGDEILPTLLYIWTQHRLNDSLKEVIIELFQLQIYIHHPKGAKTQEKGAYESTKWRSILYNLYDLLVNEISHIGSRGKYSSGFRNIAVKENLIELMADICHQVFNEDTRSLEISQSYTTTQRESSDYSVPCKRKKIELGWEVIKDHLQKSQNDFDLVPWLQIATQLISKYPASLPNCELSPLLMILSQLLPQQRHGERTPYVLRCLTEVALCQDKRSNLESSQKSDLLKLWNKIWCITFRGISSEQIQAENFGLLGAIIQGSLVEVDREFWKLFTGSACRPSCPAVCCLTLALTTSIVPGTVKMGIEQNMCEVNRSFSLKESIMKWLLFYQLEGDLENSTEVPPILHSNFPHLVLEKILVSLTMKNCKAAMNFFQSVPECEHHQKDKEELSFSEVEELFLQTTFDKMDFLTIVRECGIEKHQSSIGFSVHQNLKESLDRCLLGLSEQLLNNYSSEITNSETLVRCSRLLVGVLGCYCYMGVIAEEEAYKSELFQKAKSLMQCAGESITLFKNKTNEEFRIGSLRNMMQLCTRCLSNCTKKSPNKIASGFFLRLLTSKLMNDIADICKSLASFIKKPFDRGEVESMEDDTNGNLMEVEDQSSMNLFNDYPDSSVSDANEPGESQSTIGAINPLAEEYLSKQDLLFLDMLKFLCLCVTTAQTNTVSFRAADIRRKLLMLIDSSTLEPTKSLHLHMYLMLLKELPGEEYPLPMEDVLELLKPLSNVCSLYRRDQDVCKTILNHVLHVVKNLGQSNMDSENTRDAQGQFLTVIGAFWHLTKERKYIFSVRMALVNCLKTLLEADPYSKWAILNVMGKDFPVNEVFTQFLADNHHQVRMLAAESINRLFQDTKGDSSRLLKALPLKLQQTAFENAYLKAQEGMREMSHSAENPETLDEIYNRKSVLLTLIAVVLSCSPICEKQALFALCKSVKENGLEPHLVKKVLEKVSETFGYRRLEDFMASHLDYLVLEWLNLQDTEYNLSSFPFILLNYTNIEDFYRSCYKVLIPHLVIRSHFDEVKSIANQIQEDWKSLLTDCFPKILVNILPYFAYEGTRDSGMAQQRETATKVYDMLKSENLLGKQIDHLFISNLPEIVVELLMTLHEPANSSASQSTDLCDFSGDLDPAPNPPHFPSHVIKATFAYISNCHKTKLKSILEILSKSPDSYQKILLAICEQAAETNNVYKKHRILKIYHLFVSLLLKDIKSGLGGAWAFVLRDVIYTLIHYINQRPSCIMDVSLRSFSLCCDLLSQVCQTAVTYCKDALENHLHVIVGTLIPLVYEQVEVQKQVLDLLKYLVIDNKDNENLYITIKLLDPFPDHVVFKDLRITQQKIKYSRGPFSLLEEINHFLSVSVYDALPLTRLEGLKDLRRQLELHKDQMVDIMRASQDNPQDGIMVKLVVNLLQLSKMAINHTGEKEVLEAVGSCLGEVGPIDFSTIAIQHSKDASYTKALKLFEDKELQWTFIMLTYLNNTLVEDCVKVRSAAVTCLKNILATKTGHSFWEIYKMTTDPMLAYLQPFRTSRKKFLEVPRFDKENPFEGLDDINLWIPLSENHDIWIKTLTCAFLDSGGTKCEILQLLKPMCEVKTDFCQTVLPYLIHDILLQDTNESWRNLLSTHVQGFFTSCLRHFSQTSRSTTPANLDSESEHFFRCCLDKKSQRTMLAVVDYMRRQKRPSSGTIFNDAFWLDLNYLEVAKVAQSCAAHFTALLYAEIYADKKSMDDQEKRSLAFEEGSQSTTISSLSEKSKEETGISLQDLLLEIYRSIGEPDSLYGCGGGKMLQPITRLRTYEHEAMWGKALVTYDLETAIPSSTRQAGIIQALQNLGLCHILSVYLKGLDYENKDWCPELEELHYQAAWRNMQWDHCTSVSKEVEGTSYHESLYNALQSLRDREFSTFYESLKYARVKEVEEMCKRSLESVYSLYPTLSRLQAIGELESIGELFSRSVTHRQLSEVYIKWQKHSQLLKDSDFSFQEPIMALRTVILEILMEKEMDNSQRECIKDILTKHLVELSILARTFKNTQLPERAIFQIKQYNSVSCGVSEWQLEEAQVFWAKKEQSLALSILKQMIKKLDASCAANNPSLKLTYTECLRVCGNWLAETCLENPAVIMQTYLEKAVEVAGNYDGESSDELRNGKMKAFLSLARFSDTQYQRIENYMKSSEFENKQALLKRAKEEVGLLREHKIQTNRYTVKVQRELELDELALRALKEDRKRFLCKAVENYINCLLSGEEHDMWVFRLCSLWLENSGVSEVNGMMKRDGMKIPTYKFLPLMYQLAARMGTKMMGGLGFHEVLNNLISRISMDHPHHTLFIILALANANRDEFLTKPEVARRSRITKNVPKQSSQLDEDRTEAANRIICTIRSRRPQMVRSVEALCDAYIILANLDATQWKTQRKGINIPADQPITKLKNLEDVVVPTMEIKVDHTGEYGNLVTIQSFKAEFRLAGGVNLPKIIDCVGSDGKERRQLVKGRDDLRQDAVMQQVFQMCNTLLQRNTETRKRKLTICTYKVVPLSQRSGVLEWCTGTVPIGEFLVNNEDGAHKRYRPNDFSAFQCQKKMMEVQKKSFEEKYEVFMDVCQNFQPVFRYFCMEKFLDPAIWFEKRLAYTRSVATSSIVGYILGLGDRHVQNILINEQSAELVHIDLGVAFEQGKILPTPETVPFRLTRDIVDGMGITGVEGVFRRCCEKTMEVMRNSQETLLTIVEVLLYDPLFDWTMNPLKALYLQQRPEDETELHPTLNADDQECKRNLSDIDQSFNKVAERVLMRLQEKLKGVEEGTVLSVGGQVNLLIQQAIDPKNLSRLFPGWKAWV
Method: (§1) In order to assess the inhibitory action of the compounds against ATM in vitro, the following assay was used to determine IC50 values.
(§2) ATM protein was immunoprecipitated from HeLa cell nuclear extract using rabbit polyclonal antisera raised to the C-terminal ˜500 amino-acid residues of the human ATM protein. The immunoprecipitation was performed according to the methodology described by Banin, S. et al. (1998) Enhanced phosphorylation of p53 by ATM in response to DNA damage. Science 281:1674-1677. 10 μl of immunoprecipitated ATM in Buffer C (50 mM Hepes, pH 7.4, 6 mM MgCl2, 150 mM NaCl, 0.1 mM sodium orthovanadate, 4 mM MnCl2, 0.1 mM dithiothreitol, 10% glycerol) was added to 32.5 μl of buffer C containing 1 μg of the ATM substrate GSTp53N66 in a V-bottomed 96 well polypropylene plate. The GSTp53N66 substrate is the amino terminal 66 amino acid residues of human wild type p53 fused to glutathione S-transferase. ATM phosphorylates p53 on the residue serine 15 (Banin, S. et al. (1998) Enhanced phosphorylation of p53 by ATM in response to DNA damage. Science 281:1674-1677). Varying concentrations of inhibitor were then added. […] After 10 minutes of incubation at 37° C., the reactions were initiated by the addition of 5 μl of 50 μM Na-ATP. After 1 h with shaking at 37° C., 150 μl of phosphate buffered saline (PBS) was added to the reaction and the plate centrifuged at 1500 rpm for 10 minutes. 5 μl of the reaction was then transferred to a 96 well opaque white plate containing 45 μl of PBS to allow the GSTp53N66 substrate to bind to the plate wells. The plate was covered and incubated at room temperature for 1 h with shaking before discarding the contents. The plate wells were washed twice by the addition of PBS prior to the addition of 3% (w/v) bovine serum albumin (BSA) in PBS. The plate was incubated at room temperature for 1 h with shaking before discarding the contents and washing twice with PBS. To the wells, 50 μl of a 1:10,000 dilution of primary phosphoserine-15 antibody (Cell Signaling Technology, #9284L) in 3% BSA/PBS was added to detect the phosphorylation event on the serine 15 residue of p53 elicited by the ATM kinase. After 1 h of incubation at room temperature with shaking, the wells were washed four times with PBS prior to the addition of an anti-rabbit HRP conjugated secondary antibody (Pierce, 31462) with shaking for 1 h at room temperature. The wells were then washed four times with PBS before the addition of chemiluminescence reagent (NEN Renaissance, NEL105). The plate was then shaken briefly, covered with a transparent plate seal and transferred to a TopCount NXT for chemiluminescent counting. Counts per second, following a one second counting time, were recorded for each reaction. The inhibition of ATM activity by compounds was calculated as described above for the DNA-PK assay.
(§3) The selectivity was determined by the following equation: […]

ATM protein [2] = experiment: as above; format: biochemical, human; details: selectivity ratio from the IC50s for ATM and DNA-PK
Method: as §1, §2, §3

PI 3-kinase (p110α/p85α) [3] = molecular target: T2, PI 3-kinase (p110α/p85α) (UniProt P32871); experiment: PI 3-kinase inhibition assay; format: biochemical; details: GST-fused p110α/p85α
T2 construct: other: GST-fused p110α/p85α
Source text: (§4) In order to assess the inhibitory action of the compounds against PI 3-kinase in vitro, the following assay was used to determine IC50 values.
(§5) Baculoviral recombinant GST-fused PI 3-kinase (p110α/p85α) was purified from Sf9 insect cells using GSH-sepharose affinity chromatography as described (Wymann, M. T et al., (1996) Wortmannin inactivates phosphoinositide 3-kinase by covalent modification of Lys-802, a residue involved in the phosphate transfer reaction. Mol. Cell Biol. 16:1722-1733). PI 3-kinase (1 μl) was diluted in reaction buffer (89 μl of 50 mM Hepes pH 7.5, 150 mM NaCl, 0.1 mM Sodium Orthovanadate, containing 20 μg of phosphatidylinositol) and varying concentrations of inhibitor compound added. […] Reactions were incubated for a further 20 minutes at 37° C., before quenching with the addition of 400 μl of chloroform/methanol (1:1). Reactions were acidified by the addition of 200 μl of 1M HCl, before separation of the organic and aqueous phases by centrifugation at 10,000 g for 30 seconds. The organic phase was transferred to a fresh tube and washed twice with 150 μl of 1M hydrochloric acid/methanol (1:1), discarding the aqueous phase. The washed reaction product was then placed in a white 96-well plate with 100 μl of scintillation fluid and transferred to a TopCount NXT for scintillation counting. Counts per minute, following a one minute counting time, were recorded for each reaction. The inhibition of PI 3-kinase activity by compounds was calculated as described above for the DNA-PK assay.
as §3

PI 3-kinase (p110α/p85α) [4] = experiment: PI 3-kinase inhibition assay; format: biochemical; details: selectivity ratio from the IC50s for PI 3-kinase and DNA-PK
Source text: as §4, §5, §3

[5] = molecular target: T3, Mammalian DNA-PK, isolated from Hela cell nuclear extract (Homo sapiens, UniProt P78527); experiment: DNA-PK inhibition assay (33P-ATP, filter binding); format: biochemical
T3 construct: Mammalian DNA-PK, isolated from Hela cell nuclear extract; endogenous in cells; host or cells: HeLa cell nuclear extract (purified per Gell and Jackson 1999)
Method: In order to assess the inhibitory action of the compounds against DNA-PK in vitro, the following assay was used to determine IC50 values.
The total assay volume per well was 40 μl.
After 10 minutes of incubation at 30° C. the reactions were initiated by the addition of Na-ATP (50 μM final), ^33p-γATP and a 30mer double stranded DNA oligonucleotide (10 ng/μl) in a volume of 10 μl. Designated positive and negative reaction wells were done in combination with compound wells (unknowns) in order to calculate % enzyme activities. The plates were then shaken for 2 minutes and incubated at 30° C. for 45 minutes.
Following the incubation, the reactions were quenched by the addition of 50 μl 30% acetic acid to each well. The plates were then shaken for 5 minutes and the contents of each plate (80 μl from each well) transferred over to a 96 well Polyfiltronics filtration plate, containing P81-phosphocellulose membrane (TRADE MARK)(Whatman, UK). The solutions were vacuum pumped through the membrane and each well membrane washed four times using 300 μl of 15% acetic acid. The well membranes were then air dried and 20 μl of scintillant was added to each well.
The plates were transferred to a TopCount NXT (TRADE MARK) (Packard, UK) for scintillation counting. Values recorded are counts per minute (cpm) following a 1 minute counting time for each well.
The enzyme activity for each compound is then calculated using the following equation: […]
These are determined over a range of different concentrations, normally from 10 μM down to 0.01 μM. Such IC50 values are used as comparative values to identify increased compound potencies.

[6] = concentration at which 50% of the enzyme activity is inhibited, read-out: DNA-PK Inhibition IC50
[7] = IC50 of less than about 1 μM and/or % inhibition of more than about 50 at 1 μM, read-out: DNA-PK inhibition IC50 (particular efficacy)

Row | SMILES | IC50 (ATM protein [1]) [µM] | Δ(DNA-PK/ATM) (ATM protein [2]) | IC50 (PI 3-kinase (p110α/p85α) [3]) [µM] | Δ(DNA-PK/PI 3-K) (PI 3-kinase (p110α/p85α) [4]) | melting point [°C] | IC50 [5, 6] [µM] | IC50 [5, 7] [µM]
1 | O=c1cc(-c2ccc(Cl)cc2)oc(N2CCOCC2)c1 [Compound 284, 2-(4-chlorophenyl)-6-(morpholin-4-yl)-pyran-4-one] | > 100 | >286 | – | – | – | – | –
2 | O=c1cc(-c2ccccc2)oc(N2CCOCC2)c1 [Compound 285, 2-(morpholin-4-yl)-6-phenyl-pyran-4-one] | > 50 | >63 | 30 | 38 | 148 to 150 | – | –
3 | COc1ccccc1-c1cc(=O)cc(N2CCOCC2)o1 [Compound 286, 2-(2-methoxyphenyl)-6-(morpholin-4-yl)-pyran-4-one] | 24 | 80 | – | – | 125 to 127 | – | –
4 | COc1cccc(-c2cc(=O)cc(N3CCOCC3)o2)c1 [Compound 287, 2-(3-methoxyphenyl)-6-(morpholin-4-yl)-pyran-4-one] | > 50 | >125 | – | – | 115 to 117 | – | –
5 | COc1ccc(-c2cc(=O)cc(N3CCOCC3)o2)cc1 [Compound 288, 2-(4-Methoxyphenyl)-6-(morpholin-4-yl)-pyran-4-one] | > 100 | >286 | 15 | 43 | – | – | –
6 | CC(C)(C)c1ccc(-c2cc(=O)cc(N3CCOCC3)o2)cc1 [Compound 289, 2-(4-tert-butyl-phenyl)-6-(morpholin-4-yl)-pyran-4-one] | > 50 | >111 | 37 | 82 | 156 | – | –
7 | O=c1cc(-c2cccc(F)c2)oc(N2CCOCC2)c1 [Compound 291, 6-(3-fluorophenyl)-2-(morpholin-4-yl)pyran-4-one] | > 50 | >167 | – | – | 169 to 170 | – | –
8 | O=c1cc(-c2ccc(F)cc2)oc(N2CCOCC2)c1 [Compound 292, 6-(4-fluorophenyl)-2-(morpholin-4-yl)pyran-4-one] | > 100 | >400 | 13 | 52 | 216 to 217 | – | –
9 | O=c1cc(N2CCOCC2)oc2c(-c3ccccc3)cccc12 [Compound 294, 8-Phenyl-2-(morpholin-4-yl)-chromen-4-one] | > 100 | > 67 | – | 1 | – | – | –
10 | O=c1cc(N2CCSCC2)oc2c1ccc1ccccc12 [Compound 296, 2-(thiomorpholin-4-yl)-benzo[h]chromen-4-one] | > 100 | >83 | 6 | 5 | 171 to 173 | 1.2 | –
11 | O=c1cc(N2CCOCC2)oc2cc3ccccc3cc12 [Compound 301, 2-(morpholin-4-yl)-benzo[g]chromen-4-one] | > 50 | >125 | 16 | 40 | 219 | 0.4 | < 1
12 | O=c1cc(N2CCOCC2)oc2cc(O)ccc12 [Compound 307, 7-hydroxy-2-(morpholin-4-yl)-chromen-4-one] | > 100 | >111 | – | – | – | 0.9 | –
13 | O=c1cc(N2CCOCC2)oc2ccc3ccccc3c12 [Compound 310, 2-morpholin-4-yl-benzo[f]chromen-4-one] | > 100 | >1000 | 11 | 110 | – | – | –
14 | O=c1cc(N2CCOCC2)oc2cc(OCc3ccc4ccccc4c3)ccc12 [Compound 418, 7-(Naphthalen-2-ylmethoxy)-2-morpholin-4-yl-chromen-4-one] | > 100 | >222 | – | – | 263 to 264 | 0.45 | < 1
15 | O=C(Oc1ccc2c(=O)cc(N3CCOCC3)oc2c1)c1ccccc1 [Compound 423, 7-Benzoyloxy-2-(morpholin-4-yl)-chromen-4-one] | > 100 | >33 | – | – | 204 to 206 | 3 | –
